Measurements: patent publication US20240041991A1, “STABLE LIQUID DISPERSINB COMPOSITIONS” (KANE BIOTECH INC., priority 2020, published 2024)
Where two headings read alike, the source gives them in different places. Marks after values point to notes of the source that are not given here.

Test system: DispersinB
Type: biochemical, Aggregatibacter actinomycetemcomitans
Settings: for % enzymatic activity of DispersinB (Mean): polyol % as in label; for temperature stabilizing effect on DispersinB at elevated temperatures: 42° C., 52° C., and 62° C.
Protocol: Samples from each formula was incubated at 3 different temperatures (42° C., 52° C. and 62° C.) for 3 hours. Following a 3 hour incubation, the samples were brought to room temperature for enzymatic activity assay.
Two-tailed paired T-test was performed by to compare each polyol containing treatment with the treatment devoid of polyol. Treatment with probability values (p) less than 5% (0.05) was considered significant.

Q: How did the “% enzymatic activity of DispersinB (Mean)” value (“% enzymatic activity” below) (4° C., freshly made control without polyol = 100%, listed as 1% Maltitol) turn out when OC[C@@H](O)[C@@H](O[C@H]1O[C@H](CO)[C@@H](O)[C@H](O)[C@H]1O)[C@H](O)[C@@H](O)CO [Maltitol, 4-O-α-D-Glucopyranosyl-D-glucitol] was run?
A: The value was 102%.

Q: What about the “% enzymatic activity” value (4° C., freshly made control without polyol = 100%, listed as 2.5% Maltitol) of the same compound?
A: Its value is 99%.

Q: What about the “% enzymatic activity” value (4° C., freshly made control without polyol = 100%, listed as 5% Maltitol) of the same compound?
A: The value was 95%.

Q: What about the “% enzymatic activity” value (4° C., freshly made control without polyol = 100%, listed as 10% Maltitol) of the same compound?
A: The value was 138* %.

Q: And the “% enzymatic activity” value (4° C., freshly made control without polyol = 100%, listed as 15% Maltitol)?
A: Its value is 104%.

Q: What about the “% enzymatic activity” value (4° C., freshly made control without polyol = 100%, listed as 20% Maltitol) of the same compound?
A: Its value is 107%.

Q: And the “% enzymatic activity” value (4° C., freshly made control without polyol = 100%, listed as 25% Maltitol)?
A: Its value is 102%.

Q: And the “% enzymatic activity” value (42° C. for 3 hours, control without polyol = 100%, listed as 1% Maltitol)?
A: The value was 106* %.

Q: What about the “% enzymatic activity” value (42° C. for 3 hours, control without polyol = 100%, listed as 2.5% Maltitol) of the same compound?
A: Its value is 110* %.

Q: What about the “% enzymatic activity” value (42° C. for 3 hours, control without polyol = 100%, listed as 5% Maltitol) of the same compound?
A: The value was 107* %.

Q: What about the “% enzymatic activity” value (42° C. for 3 hours, control without polyol = 100%, listed as 10% Maltitol) of the same compound?
A: Its value is 143* %.

Q: What about the “% enzymatic activity” value (42° C. for 3 hours, control without polyol = 100%, listed as 15% Maltitol) of the same compound?
A: The value was 110* %.

Q: What about the “% enzymatic activity” value (42° C. for 3 hours, control without polyol = 100%, listed as 20% Maltitol) of the same compound?
A: Its value is 116* %.

Q: What about the “% enzymatic activity” value (42° C. for 3 hours, control without polyol = 100%, listed as 25% Maltitol) of the same compound?
A: The value was 129* %.

Q: What about the “% enzymatic activity” value (52° C. for 3 hours, control without polyol = 100%, listed as 1% Maltitol) of the same compound?
A: Its value is 17* %.

Q: What about the “% enzymatic activity” value (52° C. for 3 hours, control without polyol = 100%, listed as 2.5% Maltitol) of the same compound?
A: The value was 24* %.

Q: And the “% enzymatic activity” value (52° C. for 3 hours, control without polyol = 100%, listed as 5% Maltitol)?
A: The value was 37* %.

Q: And the “% enzymatic activity” value (52° C. for 3 hours, control without polyol = 100%, listed as 10% Maltitol)?
A: Its value is 111* %.

Q: What about the “% enzymatic activity” value (52° C. for 3 hours, control without polyol = 100%, listed as 15% Maltitol) of the same compound?
A: Its value is 102* %.

Q: And the “% enzymatic activity” value (52° C. for 3 hours, control without polyol = 100%, listed as 20% Maltitol)?
A: Its value is 113* %.

Q: And the “% enzymatic activity” value (52° C. for 3 hours, control without polyol = 100%, listed as 25% Maltitol)?
A: The value was 120* %.

Q: And the “% enzymatic activity” value (62° C. for 3 hours, control without polyol = 100%, listed as 1% Maltitol)?
A: Its value is 0%.

Q: What about the “% enzymatic activity” value (62° C. for 3 hours, control without polyol = 100%, listed as 2.5% Maltitol) of the same compound?
A: The value was 0%.

Q: What about the “% enzymatic activity” value (62° C. for 3 hours, control without polyol = 100%, listed as 5% Maltitol) of the same compound?
A: The value was 0%.

Q: What about the “% enzymatic activity” value (62° C. for 3 hours, control without polyol = 100%, listed as 10% Maltitol) of the same compound?
A: The value was 6* %.

Q: And the “% enzymatic activity” value (62° C. for 3 hours, control without polyol = 100%, listed as 15% Maltitol)?
A: The value was 8* %.

Q: And the “% enzymatic activity” value (62° C. for 3 hours, control without polyol = 100%, listed as 20% Maltitol)?
A: The value was 7* %.

Q: What about the “% enzymatic activity” value (62° C. for 3 hours, control without polyol = 100%, listed as 25% Maltitol) of the same compound?
A: Its value is 5* %.

Q: OC[C@@H](O)[C@@H](O)[C@H](O)[C@H](O)CO [Mannitol] was tested. Which “% enzymatic activity” value (4° C., freshly made control without polyol = 100%, listed as 1% Mannitol) did it give?
A: The value was 98%.

Q: What about the “% enzymatic activity” value (4° C., freshly made control without polyol = 100%, listed as 2.5% Mannitol) of the same compound?
A: Its value is 100%.

Q: What about the “% enzymatic activity” value (4° C., freshly made control without polyol = 100%, listed as 5% Mannitol) of the same compound?
A: Its value is 98%.

Q: What about the “% enzymatic activity” value (4° C., freshly made control without polyol = 100%, listed as 10% Mannitol) of the same compound?
A: Its value is 102%.

Q: What about the “% enzymatic activity” value (4° C., freshly made control without polyol = 100%, listed as 12% Mannitol) of the same compound?
A: Its value is 97%.

Q: And the “% enzymatic activity” value (42° C. for 3 hours, control without polyol = 100%, listed as 1% Mannitol)?
A: The value was 77%.

Q: What about the “% enzymatic activity” value (42° C. for 3 hours, control without polyol = 100%, listed as 2.5% Mannitol) of the same compound?
A: The value was 87* %.

Q: And the “% enzymatic activity” value (42° C. for 3 hours, control without polyol = 100%, listed as 5% Mannitol)?
A: The value was 88* %.

Q: And the “% enzymatic activity” value (42° C. for 3 hours, control without polyol = 100%, listed as 10% Mannitol)?
A: The value was 87* %.

Q: And the “% enzymatic activity” value (42° C. for 3 hours, control without polyol = 100%, listed as 12% Mannitol)?
A: The value was 86* %.

Q: And the “temperature stabilizing effect on DispersinB at elevated temperatures” value?
A: Its value is “did not exhibit temperature stabilizing effects”.

Q: And the “% enzymatic activity” value (52° C. for 3 hours, control without polyol = 100%, listed as 5% Mannitol)?
A: The value was 1* %.

Q: And the “% enzymatic activity” value (52° C. for 3 hours, control without polyol = 100%, listed as 10% Mannitol)?
A: Its value is 14* %.

Q: What about the “% enzymatic activity” value (52° C. for 3 hours, control without polyol = 100%, listed as 12% Mannitol) of the same compound?
A: The value was 53* %.

Q: How did the “% enzymatic activity” value (4° C., freshly made control without polyol = 100%, listed as Glycerol 1%) turn out when OCC(O)CO [glycerol, Propane-1,2,3-triol] was run?
A: The value was 117* %.

Q: And the “% enzymatic activity” value (4° C., freshly made control without polyol = 100%, listed as Glycerol 2.5%)?
A: Its value is 114* %.

Q: What about the “% enzymatic activity” value (4° C., freshly made control without polyol = 100%, listed as Glycerol 5%) of the same compound?
A: The value was 116* %.

Q: And the “% enzymatic activity” value (4° C., freshly made control without polyol = 100%, listed as Glycerol 10%)?
A: The value was 124* %.

Q: And the “% enzymatic activity” value (4° C., freshly made control without polyol = 100%, listed as Glycerol 20%)?
A: The value was 128* %.

Q: What about the “% enzymatic activity” value (4° C., freshly made control without polyol = 100%, listed as Glycerol 30%) of the same compound?
A: Its value is 131* %.

Q: What about the “% enzymatic activity” value (42° C. for 3 hours, control without polyol = 100%, listed as Glycerol 1%) of the same compound?
A: Its value is 94* %.

Q: And the “% enzymatic activity” value (42° C. for 3 hours, control without polyol = 100%, listed as Glycerol 2.5%)?
A: The value was 98* %.

Q: What about the “% enzymatic activity” value (42° C. for 3 hours, control without polyol = 100%, listed as Glycerol 5%) of the same compound?
A: Its value is 90* %.

Q: And the “% enzymatic activity” value (42° C. for 3 hours, control without polyol = 100%, listed as Glycerol 10%)?
A: The value was 115* %.

Q: What about the “% enzymatic activity” value (42° C. for 3 hours, control without polyol = 100%, listed as Glycerol 20%) of the same compound?
A: Its value is 112* %.

Q: What about the “% enzymatic activity” value (42° C. for 3 hours, control without polyol = 100%, listed as Glycerol 30%) of the same compound?
A: Its value is 116* %.

Q: And the “temperature stabilizing effect on DispersinB at elevated temperatures” value?
A: Its value is “exhibited temperature stabilizing effect”.

Q: What about the “% enzymatic activity” value (52° C. for 3 hours, control without polyol = 100%, listed as Glycerol 5%) of the same compound?
A: Its value is 16* %.

Q: What about the “% enzymatic activity” value (52° C. for 3 hours, control without polyol = 100%, listed as Glycerol 10%) of the same compound?
A: The value was 31* %.

Q: And the “% enzymatic activity” value (52° C. for 3 hours, control without polyol = 100%, listed as Glycerol 20%)?
A: Its value is 92* %.

Q: And the “% enzymatic activity” value (52° C. for 3 hours, control without polyol = 100%, listed as Glycerol 30%)?
A: The value was 93* %.
